From PubChem BioAssay AID1189 (EPA DSSTox, 2008) come the findings set out here.

Active and inactive are the calls of the source.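 The calls were made as follows: active = a tumor-causing dose value with its tumor site reported for any sex and species group of a rodent or other animal cancer study; inconclusive = only studies judged inadequate by the national testing program; inactive = tested in at least one study, none positive.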

The series in a line: DSSTox (CPDBAS) Carcinogenic Potency Database Summary SingleCellCall Results. Conditions: animal chronic carcinogenicity bioassays, CPDB summary call. From the text:
The Carcinogenic Potency Database (CPDB) is a unique and widely used international resource of the results of over 6500 chronic, long-term animal cancer tests on over 1500 chemical substances. The CPDB provides easy access to the bioassay literature, with qualitative and quantitative analyses of both positive and negative experiments that have been published over the past 50 years in the general literature and by the National Cancer Institute/National Toxicology Program. The CPDB standardizes the diverse literature of cancer bioassays that vary widely in protocol, histopathological examination and nomenclature, and in the published author's choices of what information to provide in their papers. Results are reported in the CPDB for tests in rats, mice, hamsters, dogs, and nonhuman primates, and are based on the most positive result among all experiments for each sex-species. The DSSTox CPDBAS (all species) file incorporates data from the CPDB Summary Tables for the full list of over 1500 chemical substances tested in at least one species. A summary SingleCellCall, based on experimental bioassay results of one or more species, is provided for the entire DSSTox CPDBAS file (see Source URL).
An assignment of categorical carcinogenic activity based on minimal evidence for or against activity. […] Associated TD50 values and tumor site details for the relevant species/sex experiment supporting this overall CPDBAS SingleSiteCall are provided in the full CPDBAS DSSTox file (see Comment) and the corresponding CPDBAS Species Bioassay in PubChem.
For `NNC(=O)c1cccnc1`, the outcome was active. With `CCCCC/C=C\C/C=C\CCCCCCCC(=O)OC` the entry was “inactive”. Turning to `Cn1c(N)nc2ncc(-c3ccccc3)cc21`, the outcome was active. In the case of `CCCN(CCC)c1ccc(N=Nc2cc[n+]([O-])cc2)cc1`, the outcome was inactive. Regarding `COc1cc2c(cc1N)oc1ccccc12`, the outcome was active. In the case of `O=[N+]([O-])c1ccc(Cl)c([N+](=O)[O-])c1` it was “inactive”; in that of `O=CCCl`, “active”.

`O=c1ccc(=O)[nH][nH]1`: the outcome was “inactive; active”.

On to `O=Nc1ccc(NO)cc1`, for which the result was active. Turning to `O=[N+]([O-])c1ccc(Nc2ccc(Nc3ccccc3)c(S(=O)(=O)O)c2)c([N+](=O)[O-])c1`, the outcome was “active; inactive”. With `O=S1(=O)OCCO1`, the result was inactive. In the case of `COc1cccc2c1C(=O)c1c(O)c3c(c(O)c1C2=O)C[C@@](O)(C(=O)CO)C[C@@H]3O[C@H]1C[C@H](N)[C@H](O)[C@H](C)O1`, the outcome is “inactive; active”.

For the compound `CC(=O)CN(CCO)N=O`, the outcome was active. Regarding `CCOC(=O)CBr`, the result was inactive.

Consider `Clc1nc(Cl)nc(Nc2ccccc2Cl)n1`, for which the result was inactive.

With `Cc1cc(Cl)ccc1N`, the outcome was active.

For the compound `c1ccc2ccccc2c1`, the outcome was active. Consider `O=c1oc2c(O)c(O)cc3c(=O)oc4c(O)c(O)cc1c4c23`, for which the outcome was inactive. Regarding `CC(=O)[O][Sn]([c]1ccccc1)([c]1ccccc1)[c]1ccccc1`, the outcome is “inactive; active”. Regarding `CCCOC(=O)c1cc(O)c(O)c(O)c1`, the result was inactive.

As for `COc1cc(CNC(=O)CCCC/C=C/C(C)C)ccc1O`, the outcome was active. Consider `CC[C@H](C)[C@H]1O[C@]2(CC[C@@H]1C)C[C@@H]1C[C@@H](C/C=C(\C)[C@@H](O[C@H]3C[C@H](OC)[C@@H](O[C@H]4C[C@H](OC)[C@@H](O)[C@H](C)O4)[C@H](C)O3)[C@@H](C)/C=C/C=C3\CO[C@@H]4[C@H](O)C(C)=C[C@@H](C(=O)O1)[C@]34O)O2`, for which the outcome was inactive. For `CS(=O)(=O)OCCCNCCCOS(C)(=O)=O`, the outcome was “inactive; active”.

On to `CCN(CC)C(=S)S`, for which the outcome was “inactive; active”. In the case of `O.[Cd+2].[Cl-].[Cl-]`, the result was inactive. As for `CCCCCCN(N=O)C(N)=O`, the outcome is “active; inactive”.

Take `O=C(O)c1nn(Cc2ccc(Cl)cc2Cl)c2ccccc12`: the outcome was inactive. `O=P(OCC(Br)CBr)(OCC(Br)CBr)OCC(Br)CBr` (centres undefined): the outcome was active.

Take `[Se]`: the outcome was inactive. For the compound `Cn1cnc2nc(N)[nH]c(=O)c21`, the result was inactive.

For `Oc1cccc2cccnc12`, the result was inactive. In the case of `CCOP(=S)(OCC)Oc1ccc2c(C)c(Cl)c(=O)oc2c1` it was “inactive”; in that of `O=C1O[C@H]([C@H](O)CO)C(O)=C1O`, “inactive; active”; in that of `C=CCc1ccc2c(c1)OCO2`, “active”. As for `CC(C)Cc1ccc(C(C)C(=O)O)cc1` (centres undefined), the result was inactive. For the compound `ClC#CCl`, the result was active.

In the case of `CC(C)C(C(=O)OC(C#N)c1cccc(Oc2ccccc2)c1)c1ccc(Cl)cc1` (centres undefined), the result was inactive. Consider `C=C(C)C`, for which the outcome was active.

`CC(C)NCC(O)c1ccc(NS(C)(=O)=O)cc1` (centres undefined): the result was inactive. For `CC(=O)N[C@@H](CS)C(=O)O`, the outcome was inactive. For the compound `CC(=O)Nc1ccc2c(c1)Cc1cc(NC(C)=O)ccc1-2`, the result was inactive. As for `CC(C)COC(=O)c1ccc(O)cc1`, the result was inactive.

Take `O=C1c2ccccc2-c2ccc3c4c(ccc1c24)-c1ccccc1C3=O`: the outcome is “active; inactive”. On to `CC(O)CO` (centres undefined), for which the result was inactive.
